Experiment [1] can be described thus: Immunomodulatory activity in C57BL/6 mouse BMDC assessed as IL-10 production at 30 uM after 3 days by FACS flow cytometric analysis (reference value: 16.2 +/- 4.7 pg/mL). Type of experiment: functional. (In general: Flow cytometry measures light scatter and fluorescence of single cells or particles in a stream.)
Experiment [2] is described as follows: Immunomodulatory activity in C57BL/6 mouse BMDC assessed as IL-1beta production at 30 uM after 3 days by FACS flow cytometric analysis (reference value: 26.2 +/- 3.7 pg/mL). Type of experiment: functional.
A further experiment deals with T1, Toll-like receptor 7 (Homo sapiens, UniProt Q9NYK1).
T1 sequence (Q9NYK1 whole entry): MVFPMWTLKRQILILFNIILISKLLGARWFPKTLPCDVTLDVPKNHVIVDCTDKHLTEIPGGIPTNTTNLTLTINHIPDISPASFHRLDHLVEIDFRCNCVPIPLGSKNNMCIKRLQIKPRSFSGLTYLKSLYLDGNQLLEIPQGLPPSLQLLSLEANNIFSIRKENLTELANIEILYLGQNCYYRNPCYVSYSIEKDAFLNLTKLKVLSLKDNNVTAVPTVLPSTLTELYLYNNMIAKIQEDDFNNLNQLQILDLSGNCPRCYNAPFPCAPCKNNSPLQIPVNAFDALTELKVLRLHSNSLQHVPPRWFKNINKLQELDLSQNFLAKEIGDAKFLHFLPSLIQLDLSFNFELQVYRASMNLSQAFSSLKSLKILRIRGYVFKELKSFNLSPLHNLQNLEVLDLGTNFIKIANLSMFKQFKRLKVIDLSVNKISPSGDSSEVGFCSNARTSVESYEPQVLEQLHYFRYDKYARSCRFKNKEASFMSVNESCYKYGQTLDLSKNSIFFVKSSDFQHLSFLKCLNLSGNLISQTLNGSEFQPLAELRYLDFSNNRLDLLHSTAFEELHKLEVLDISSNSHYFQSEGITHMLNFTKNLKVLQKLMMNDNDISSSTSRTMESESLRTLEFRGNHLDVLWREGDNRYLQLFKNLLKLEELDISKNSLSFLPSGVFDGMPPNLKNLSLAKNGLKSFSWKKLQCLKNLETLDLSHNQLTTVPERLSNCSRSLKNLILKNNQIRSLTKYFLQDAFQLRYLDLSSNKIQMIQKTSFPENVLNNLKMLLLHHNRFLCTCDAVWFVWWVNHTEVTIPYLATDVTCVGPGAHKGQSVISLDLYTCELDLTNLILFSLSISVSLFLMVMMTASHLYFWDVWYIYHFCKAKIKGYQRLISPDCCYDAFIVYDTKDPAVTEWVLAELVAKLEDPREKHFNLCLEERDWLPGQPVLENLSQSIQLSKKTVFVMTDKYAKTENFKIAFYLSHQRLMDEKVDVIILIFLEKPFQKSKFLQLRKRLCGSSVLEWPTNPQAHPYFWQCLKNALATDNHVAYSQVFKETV
Description: Agonist activity at human TLR7 transfected in HEK cells assessed as NFkappaB induction after 24 hrs by specific secreted alkaline phosphatase gene assay. Type of experiment: functional, cell-based, HEK293.

Experiment [3] can be described thus: Immunomodulatory activity in C57BL/6 mouse BMDC assessed as IL-12p40 production at 30 uM after 3 days by FACS flow cytometric analysis (reference value: 260.6 +/- 11.9 pg/mL). Type of experiment: functional.
A further experiment has as its target T2, Toll-like receptor 8 (Homo sapiens, UniProt Q9NR97).
T2 sequence (Q9NR97 whole entry): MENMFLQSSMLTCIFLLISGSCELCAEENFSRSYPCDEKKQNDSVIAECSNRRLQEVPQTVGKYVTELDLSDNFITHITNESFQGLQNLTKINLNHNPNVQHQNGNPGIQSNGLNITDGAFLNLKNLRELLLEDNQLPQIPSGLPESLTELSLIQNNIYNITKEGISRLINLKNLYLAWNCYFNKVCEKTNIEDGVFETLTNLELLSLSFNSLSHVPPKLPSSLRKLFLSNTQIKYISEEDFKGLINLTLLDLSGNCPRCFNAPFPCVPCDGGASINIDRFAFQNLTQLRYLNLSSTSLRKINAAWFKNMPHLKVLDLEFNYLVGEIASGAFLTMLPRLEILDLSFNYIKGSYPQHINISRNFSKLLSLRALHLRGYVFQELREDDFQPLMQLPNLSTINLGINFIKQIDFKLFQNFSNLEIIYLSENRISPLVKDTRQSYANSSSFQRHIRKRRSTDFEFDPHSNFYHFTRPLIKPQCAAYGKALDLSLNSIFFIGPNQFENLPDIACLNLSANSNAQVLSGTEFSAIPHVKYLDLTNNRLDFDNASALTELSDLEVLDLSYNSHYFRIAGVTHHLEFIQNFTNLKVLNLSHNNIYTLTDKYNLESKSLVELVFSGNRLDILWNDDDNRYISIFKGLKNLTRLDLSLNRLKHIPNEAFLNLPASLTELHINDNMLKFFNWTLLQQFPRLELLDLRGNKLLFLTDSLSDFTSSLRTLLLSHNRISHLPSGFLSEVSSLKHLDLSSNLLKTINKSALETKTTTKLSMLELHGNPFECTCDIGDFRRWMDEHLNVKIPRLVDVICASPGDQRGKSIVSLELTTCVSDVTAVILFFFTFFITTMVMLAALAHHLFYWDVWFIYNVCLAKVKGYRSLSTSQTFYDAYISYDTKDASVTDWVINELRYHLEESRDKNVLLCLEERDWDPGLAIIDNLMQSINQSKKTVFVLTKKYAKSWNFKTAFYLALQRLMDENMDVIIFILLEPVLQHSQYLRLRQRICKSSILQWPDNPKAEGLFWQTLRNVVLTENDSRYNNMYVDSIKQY
The experiment can be described thus: Agonist activity at human TLR8 transfected in HEK cells assessed as NFkappaB induction after 24 hrs by specific secreted alkaline phosphatase gene assay. Type of experiment: functional, cell-based, HEK293.

Experiment [4] in a line: Immunomodulatory activity in C57BL/6 mouse BMDC assessed as TNFalpha production at 30 uM after 3 days by FACS flow cytometric analysis (reference value: 91.3 +/- 34.5 pg/mL). The format is functional.
A short description of experiment [5]: Immunomodulatory activity in C57BL/6 mouse BMDC assessed as TNFalpha production at 30 uM after 3 days by FACS flow cytometric analysis relative to imiquimod. Type of experiment: functional.
A short description of experiment [6]: Immunomodulatory activity in C57BL/6 mouse BMDC assessed as IL-12p40 production at 30 uM after 3 days by FACS flow cytometric analysis relative to imiquimod. Type of experiment: functional.

Molecules are shown by their SMILES. Some results are limits rather than exact numbers.

In general, EC50 refers to the concentration at which the effect is half-maximal. As to `CCCCc1nc2c(N)nc3cc(C(=O)OC)ccc3c2n1CC(C)(C)O`, the Activity in experiment [1] was 110 pg/mL; in experiment [2], 893 pg/mL; in experiment [3] it was 1286 pg/mL; in experiment [4] it was 1353 pg/mL. The EC50 on Toll-like receptor 7 was 1.2 µM; on Toll-like receptor 8, 41.3 µM.
Turning to `CCCCc1nc2c(N)nc3ccccc3c2n1CC(C)(C)O`, the Activity in experiment [1] stood at 181 pg/mL; in experiment [2], 73 pg/mL; in experiment [3], 864 pg/mL; in experiment [4], 1743 pg/mL.
`CC(C)(O)Cn1cnc2c(N)nc3ccccc3c21`: the Activity in experiment [1] was determined as 60 pg/mL; in experiment [2], 61 pg/mL; in experiment [3] it was 839 pg/mL; in experiment [4] it was 2041 pg/mL. The EC50 on Toll-like receptor 7 was 95 µM; at Toll-like receptor 8 it was above 270 µM.
`CC(C)Cn1cnc2c(N)nc3ccccc3c21` [IMIQUIMOD]: the Activity in experiment [1] stood at 33 pg/mL; in experiment [2], 35 pg/mL; in experiment [3], 889 pg/mL; in experiment [4], 593 pg/mL. In addition, the results for the EC50 at Toll-like receptor 7 and at Toll-like receptor 8 were 12.1 µM and above 270 µM, respectively.
As for `CCOCc1nc2c(N)nc3ccccc3c2n1CC(C)(C)O` [RESIQUIMOD], the Activity is 72 pg/mL in experiment [1], 38 pg/mL in experiment [2], 1491 pg/mL in experiment [3] and 2134 pg/mL in experiment [4].
Consider `COC(=O)c1ccc2c(c1)nc(N)c1ncn(CC(C)(C)O)c12`, for which the Activity turned out to be 94 pg/mL in experiment [1], 1144 pg/mL in experiment [2], 1773 pg/mL in experiment [3] and 1451 pg/mL in experiment [4]. Also, the EC50 at Toll-like receptor 7 and on Toll-like receptor 8 was above 270 µM each time. Besides, the “fold change (FC)” value in experiment [5] and in experiment [6] was above 2 in each case.

The values above are taken from ChEMBL document CHEMBL2216754, “Discovery of Imidazoquinolines with Toll-Like Receptor 7/8 Independent Cytokine Induction” (ACS Med Chem Lett, 2012).
